# According to patent publication US9206191B2, “Indazoles for the treatment and prophylaxis of respiratory syncytial virus infection” (Hoffmann-La Roche Inc., priority 2012, dated 2015):
# Test system: RSV Long strain
# Experiment: Viral Cytopathic Effect (CPE) Assay
# Type: cell-based
# Settings: human respiratory syncytial virus, 144 h, cell viability after 6 days, Cell Counting kit-8
row,EC50 [nM],SMILES
1,10.9,"CS(=O)(=O)c1nn(Cc2nc3cc(Cl)ccc3n2C2CCN(C(=O)CO)C2)c2cnccc12 (centres unmarked) [Example 2-17, 1-[3-(5-Chloro-2-{[3-(methylsulfonyl)-1H-pyrazolo[3,4-c]pyridin-1-yl]methyl}-1H-benzimidazol-1-yl)pyrrolidin-1-yl]-2-hydroxyethanone]"
2,1.6,"CS(=O)(=O)c1nn(Cc2nc3cc(Cl)ccc3n2CCC(O)C(F)(F)F)c2cnccc12 (centres unmarked) [Example 2-42, 4-(5-chloro-2-{[3-(methylsulfonyl)-1H-pyrazolo[3,4-c]pyridin-1-yl]methyl}-1H-benzimidazol-1-yl)-1,1,1-trifluorobutan-2-ol]"
3,2.8,"CC(O)(CCn1c(Cn2nc(S(C)(=O)=O)c3ccncc32)nc2cc(Cl)ccc21)C(F)(F)F (centres unmarked) [Example 14, 4-(5-chloro-2-{[3-(methylsulfonyl)-1H-pyrazolo[3,4-c]pyridin-1-yl]methyl}-1H-benzimidazol-1-yl)-1,1,1-trifluoro-2-methylbutan-2-ol]"
4,18.1,"CS(=O)(=O)c1nn(Cc2nc3cc(Cl)ccc3n2-c2ccc(Cl)nc2)c2ccccc12 [Example 3-5, 1-{[5-Chloro-1-(6-chloropyridin-3-yl)-1H-benzimidazol-2-yl]methyl}-3-(methylsulfonyl)-1H-indazole]"
5,119,"CC(C)S(=O)(=O)c1cn(Cc2nc3cc(Cl)ccc3n2CCCS(C)(=O)=O)c2ccccc12 [Example 1-6, 5-Chloro-1-[3-(methylsulfonyl)propyl]-2-{[3-(propan-2-ylsulfonyl)-1H-indol-1-yl]methyl}-1H-benzimidazole]"
6,1540,"CS(=O)(=O)c1nn(Cc2nc3cc(Cl)ccc3n2-c2ccc(F)nc2)c2c[n+]([O-])ccc12 [Example 3-3, 1-{[5-Chloro-1-(6-fluoropyridin-3-yl)-1H-benzimidazol-2-yl]methyl}-3-(methylsulfonyl)-1H-pyrazolo[3,4-c]pyridine 6-oxide]"
7,708,"CS(=O)(=O)c1nn(Cc2nc3cc(Cl)ccc3n2C2CNC2)c2cnccc12 [Example 2-14, 1-{[1-(Azetidin-3-yl)-5-chloro-1H-benzimidazol-2-yl]methyl}-3-(methylsulfonyl)-1H-pyrazolo[3,4-c]pyridine]"
8,4.34,"CS(=O)(=O)c1nn(Cc2nc3cc(Cl)ccc3n2CC2CCOC2)c2cnccc12 (centres unmarked) [Example 2-31, 1-{[5-Chloro-1-(tetrahydrofuran-3-ylmethyl)-1H-benzimidazol-2-yl]methyl}-3-(methylsulfonyl)-1H-pyrazolo[3,4-c]pyridine]"
9,82,"CS(=O)(=O)CCCn1c(Cn2cc(S(C)(=O)=O)c3ccncc32)nc2cc(Cl)ccc21 [Example 1-4, 5-Chloro-1-[3-(methylsulfonyl)propyl]-2-{[3-(methylsulfonyl)-1H-pyrrolo[2,3-c]pyridin-1-yl]methyl}-1H-benzimidazole]"
10,7,"CC(=O)N1CC[C@@H](n2c(Cn3nc(S(C)(=O)=O)c4ccncc43)nc3cc(Cl)ccc32)C1 [Example 6-1, 1-[(3R)-3-(5-Chloro-2-{[3-(methylsulfonyl)-1H-pyrazolo[3,4-c]pyridin-1-yl]methyl}-1H-benzimidazol-1-yl)pyrrolidin-1-yl]ethanone]"
11,16.4,"CC(=O)N1CCC(n2c(Cn3nc(S(C)(=O)=O)c4ccncc43)nc3cc(Cl)ccc32)C1 (centres unmarked) [Example 2-16, 1-[3-(5-Chloro-2-{[3-(methylsulfonyl)-1H-pyrazolo[3,4-c]pyridin-1-yl]methyl}-1H-benzimidazol-1-yl)pyrrolidin-1-yl]ethanone]"
12,2,"CS(=O)(=O)c1nn(Cc2nc3cc(Cl)cc(F)c3n2[C@@H]2CCS(=O)(=O)C2)c2cnccc12 [Example 12, 1-({5-chloro-1-[(3R)-1,1-dioxidotetrahydrothiophen-3-yl]-7-fluoro-1H-benzimidazol-2-yl}methyl)-3-(methylsulfonyl)-1H-pyrazolo[3,4-c]pyridine]"
13,3,"CS(=O)(=O)c1nn(Cc2nc3cc(Cl)ccc3n2[C@@H]2CCN(S(C)(=O)=O)C2)c2cnccc12 [Example 6-6, 1-({5-Chloro-1-[(3R)-1-(methylsulfonyl)pyrrolidin-3-yl]-1H-benzimidazol-2-yl}methyl)-3-(methylsulfonyl)-1H-pyrazolo[3,4-c]pyridine]"
14,2,"CC(C)(O)[C@H]1C[C@H](n2c(Cn3nc(S(C)(=O)=O)c4ccncc43)nc3cc(Cl)ccc32)C1 [Example 2-39, 2-[trans-3-(5-chloro-2-{[3-(methylsulfonyl)-1H-pyrazolo[3,4-c]pyridin-1-yl]methyl}-1H-benzimidazol-1-yl)cyclobutyl]propan-2-ol]"
15,8.2,"CS(=O)(=O)c1nn(Cc2nc3cc(Cl)ccc3n2C2CCC(O)CC2)c2cnccc12 (centres unmarked) [Example 2-11, 4-(5-Chloro-2-{[3-(methylsulfonyl)-1H-pyrazolo[3,4-c]pyridin-1-yl]methyl}-1H-benzimidazol-1-yl)cyclohexanol]"
16,6.07,"CCC(=O)N1CC[C@@H](n2c(Cn3nc(S(C)(=O)=O)c4ccccc43)nc3cc(Cl)ccc32)C1 [Example 6-3, 1-[(3R)-3-(5-Chloro-2-{[3-(methylsulfonyl)-1H-indazol-1-yl]methyl}-1H-benzimidazol-1-yl)pyrrolidin-1-yl]propan-1-one]"

row,EC50 [nM],SMILES
1,19.4,"CS(=O)(=O)c1nn(Cc2nc3cc(Cl)ccc3n2C2CNC3(COC3)C2)c2cnccc12 (centres unmarked) [Example 8, 1-{[5-Chloro-1-(2-oxa-5-azaspiro[3.4]oct-7-yl)-1H-benzimidazol-2-yl]methyl}-3-(methanesulfonyl)-1H-pyrazolo[3,4-c]pyridine]"
2,16,"CS(=O)(=O)CCCn1c(Cn2nc(S(C)(=O)=O)c3ccccc32)nc2cc(Cl)ccc21 [Example 1-8, 1-({5-Chloro-1-[3-(methylsulfonyl)propyl]-1H-benzimidazol-2-yl}methyl)-3-(methylsulfonyl)-1H-indazole]"
3,4.81,"CS(=O)(=O)c1nn(Cc2nc3cc(Cl)ccc3n2CCCCO)c2cnccc12 [Example 2-30, 4-(5-Chloro-2-{[3-(methylsulfonyl)-1H-pyrazolo[3,4-c]pyridin-1-yl]methyl}-1H-benzimidazol-1-yl)butan-1-ol]"
4,7,"CS(=O)(=O)c1nn(Cc2nc3cc(Cl)ccc3n2[C@H]2C[C@H](C(=O)O)C2)c2cnccc12 [Example 2-41, trans-3-(5-chloro-2-{[3-(methylsulfonyl)-1H-pyrazolo[3,4-c]pyridin-1-yl]methyl}-1H-benzimidazol-1-yl)cyclobutanecarboxylic acid]"
5,15.9,"CS(=O)(=O)c1nn(Cc2nc3cc(Cl)ccc3n2CCCC(F)(F)F)c2c[n+]([O-])ccc12 [Example 4-2, 1-{[5-Chloro-1-(4,4,4-trifluorobutyl)-1H-benzimidazol-2-yl]methyl}-3-(methylsulfonyl)-1H-pyrazolo[3,4-c]pyridine 6-oxide]"
6,591,"CS(=O)(=O)c1nn(Cc2nc3cc(Cl)ccc3n2C2CCNCC2)c2ccccc12 [Example 2-15, 1-{[5-Chloro-1-(piperidin-4-yl)-1H-benzimidazol-2-yl]methyl}-3-(methylsulfonyl)-1H-indazole]"
7,4,"CC(C)C(=O)N1CC[C@@H](n2c(Cn3nc(S(C)(=O)=O)c4ccncc43)nc3cc(Cl)ccc32)C1 [Example 6-4, 1-[(3R)-3-(5-Chloro-2-{[3-(methylsulfonyl)-1H-pyrazolo[3,4-c]pyridin-1-yl]methyl}-1H-benzimidazol-1-yl)pyrrolidin-1-yl]-2-methylpropan-1-one]"
8,8.66,"CS(=O)(=O)c1nn(Cc2nc3cc(Cl)ccc3n2C2CC3(COC3)C2)c2cnccc12 [Example 2-24, 1-{[5-Chloro-1-(2-oxaspiro[3.3]hept-6-yl)-1H-benzimidazol-2-yl]methyl}-3-(methylsulfonyl)-1H-pyrazolo[3,4-c]pyridine]"
9,36,"CS(=O)(=O)c1nn(Cc2nc3cc(Cl)ccc3n2C2CCN(C(=O)CN)C2)c2cnccc12 (centres unmarked) [Example 2-18, 2-Amino-1-[3-(5-chloro-2-{[3-(methylsulfonyl)-1H-pyrazolo[3,4-c]pyridin-1-yl]methyl}-1H-benzimidazol-1-yl)pyrrolidin-1-yl]ethanone]"
10,68,"C[C@@H](c1nc2cc(Cl)ccc2n1CCC(F)(F)F)n1nc(S(C)(=O)=O)c2ccncc21 [Example 15-2, 1-{(1S)-1-[5-Chloro-1-(3,3,3-trifluoropropyl)-1H-benzimidazol-2-yl]ethyl}-3-(methylsulfonyl)-1H-pyrazolo[3,4-c]pyridine]"
11,8.43,"CS(=O)(=O)c1nn(Cc2nc3cc(Cl)ccc3n2C2CNC(=O)C2)c2cnccc12 (centres unmarked) [Example 7, 4-(5-Chloro-2-{[3-(methylsulfonyl)-1H-pyrazolo[3,4-c]pyridin-1-yl]methyl}-1H-benzimidazol-1-yl)pyrrolidin-2-one]"
12,7,"CS(=O)(=O)c1nn(Cc2nc3cc(Cl)cc(F)c3n2CCCC(F)(F)F)c2cnccc12 [Example 5-2, 1-{[5-Chloro-7-fluoro-1-(4,4,4-trifluorobutyl)-1H-benzimidazol-2-yl]methyl}-3-(methylsulfonyl)-1H-pyrazolo[3,4-c]pyridine]"
13,7.2,"CS(=O)(=O)c1nn(Cc2nc3cc(Cl)ccc3n2[C@H]2C[C@@](O)(CO)C2)c2cnccc12 [Example 2-46, trans-3-(5-chloro-2-{[3-(methylsulfonyl)-1H-pyrazolo[3,4-c]pyridin-1-yl]methyl}-1H-benzimidazol-1-yl)-1-(hydroxymethyl)cyclobutanol]"
14,26.2,"CS(=O)(=O)CCn1c(Cn2nc(S(C)(=O)=O)c3ccccc32)nc2cc(Cl)ccc21 [Example 1-12, 1-({5-Chloro-1-[2-(methylsulfonyl)ethyl]-1H-benzimidazol-2-yl}methyl)-3-(methylsulfonyl)-1H-indazole]"
15,3.71,"CS(=O)(=O)CCn1c(Cn2nc(S(C)(=O)=O)c3ccncc32)cc2cc(Cl)ccc21 [Example 9-1, 1-({5-Chloro-1-[2-(methylsulfonyl)ethyl]-1H-indol-2-yl}methyl)-3-(methylsulfonyl)-1H-pyrazolo[3,4-c]pyridine]"
16,3.68,"CS(=O)(=O)c1nn(Cc2nc3cc(Cl)ccc3n2[C@@H]2CCN(CCO)C2)c2cnccc12 [Example 6-7, 2-[(3R)-3-(5-Chloro-2-{[3-(methylsulfonyl)-1H-pyrazolo[3,4-c]pyridin-1-yl]methyl}-1H-benzimidazol-1-yl)pyrrolidin-1-yl]ethanol]"
